This is an account of results in ChEMBL document CHEMBL5260848, “Recent advancements in the development of bioactive pyrazoline derivatives” (Eur J Med Chem, 2020).

In brackets after ≈: the same amount, converted by molar mass.

One assay has as its system MCF7. Description: Cytotoxicity against human MCF7 cells. The format is functional, cell-based.
The next assay has as its system Ca9-22. The assay is described as follows: Cytotoxicity against human Ca9-22 cells assessed as reduction in cell viability incubated for 48 hrs by MTT assay. The format is functional. On the technique in general: Tetrazolium assays rely on reduction of a dye to a coloured formazan, in cell work by metabolically active cells.
Another assay deals with HSC-2. The assay is described as follows: Cytotoxicity against human HSC-2 cells assessed as reduction in cell viability incubated for 48 hrs by MTT assay. It counts as functional.
The test system of the next assay is HSC-3. The assay is described as follows: Cytotoxicity against human HSC-3 cells assessed as reduction in cell viability incubated for 48 hrs by MTT assay. The format is functional.
The nature of assay [1]: Cytotoxicity against human HGF cells assessed as reduction in cell viability incubated for 48 hrs by MTT assay. The format is functional.
Assay [2] in a line: Cytotoxicity against human HPLF cells assessed as reduction in cell viability incubated for 48 hrs by MTT assay. It counts as functional.
A short description of assay [3]: Cytotoxicity against human HPC cells assessed as reduction in cell viability incubated for 48 hrs by MTT assay. It counts as functional.
The target of assay [4] is T1, Carbonic anhydrase 9 (Homo sapiens, UniProt Q16790). The assay is described as follows: Inhibition of human CA9 preincubated for 15 mins by phenol red dye based stopped flow CO2 hydration assay.
Another assay deals with Carbonic anhydrase 12 (Homo sapiens, UniProt O43570). The assay is described as follows: Inhibition of human CA12 preincubated for 15 mins by phenol red dye based stopped flow CO2 hydration assay.
Chain of Carbonic anhydrase 12 (O43570 whole entry): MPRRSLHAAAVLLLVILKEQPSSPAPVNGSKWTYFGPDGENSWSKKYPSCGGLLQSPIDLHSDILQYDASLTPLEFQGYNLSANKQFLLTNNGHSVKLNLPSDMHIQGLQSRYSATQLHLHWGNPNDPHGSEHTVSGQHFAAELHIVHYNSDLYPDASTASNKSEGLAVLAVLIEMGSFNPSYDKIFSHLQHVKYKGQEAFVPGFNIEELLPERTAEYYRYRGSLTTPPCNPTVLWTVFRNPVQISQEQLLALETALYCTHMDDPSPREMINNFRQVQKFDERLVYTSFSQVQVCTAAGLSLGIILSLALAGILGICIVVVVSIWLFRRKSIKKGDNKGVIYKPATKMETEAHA
In assay [5] the test system is Candida albicans. The assay is described as follows: Antifungal activity against Candida albicans assessed as reduction in microbial growth. The format is functional.
For a further assay, the system named is Cryptococcus neoformans. The assay is described as follows: Antifungal activity against Cryptococcus neoformans assessed as reduction in microbial growth. It counts as functional.
Assay [6] can be described thus: Cytotoxicity against human Panel NCI-58 (58 carcinoma cell lines) cells. It counts as functional.
The test system of a further assay is Plasmodium falciparum. Description: Antimalarial activity against chloroquine-sensitive Plasmodium falciparum NF54 measured after 72 hrs by giemsa staining based analysis. The format is functional, organism-based. Conditions: NF54, 72 h.
Another assay has as its target Carbonic anhydrase 1 (Homo sapiens, UniProt P00915).
Assay [7] concerns the target T1, Carbonic anhydrase 9. The assay is described as follows: Inhibition of human CA9.
For another assay, the target named is Carbonic anhydrase 2 (Homo sapiens, UniProt P00918).
In the next assay the target is Acetylcholinesterase (Homo sapiens, UniProt P22303).
Chain of Acetylcholinesterase (P22303 whole entry): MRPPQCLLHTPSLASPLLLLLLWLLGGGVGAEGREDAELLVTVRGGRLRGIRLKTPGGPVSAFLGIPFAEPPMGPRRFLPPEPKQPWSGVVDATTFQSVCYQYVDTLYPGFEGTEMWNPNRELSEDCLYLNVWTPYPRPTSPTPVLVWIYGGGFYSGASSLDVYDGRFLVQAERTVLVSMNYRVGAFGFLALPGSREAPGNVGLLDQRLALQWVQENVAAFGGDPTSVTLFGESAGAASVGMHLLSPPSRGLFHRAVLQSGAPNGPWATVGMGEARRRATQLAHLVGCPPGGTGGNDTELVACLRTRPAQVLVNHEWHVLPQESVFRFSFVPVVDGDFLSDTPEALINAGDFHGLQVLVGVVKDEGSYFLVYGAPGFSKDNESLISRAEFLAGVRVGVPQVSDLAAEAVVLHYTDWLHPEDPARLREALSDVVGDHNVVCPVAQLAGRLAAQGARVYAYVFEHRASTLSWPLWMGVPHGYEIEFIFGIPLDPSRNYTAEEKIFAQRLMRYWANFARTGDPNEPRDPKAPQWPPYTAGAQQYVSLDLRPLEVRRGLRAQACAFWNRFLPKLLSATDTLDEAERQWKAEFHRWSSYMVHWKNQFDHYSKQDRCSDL
In the next assay the test system is Aspergillus clavatus. Description: Antifungal activity against Aspergillus clavatus. It counts as functional.
Assay [8] relates to Candida albicans. Description: Antifungal activity against Candida albicans. The format is functional.
The next assay concerns Aspergillus niger. Description: Antifungal activity against Aspergillus niger. The format is functional.
For a further assay, the system named is Staphylococcus aureus. Description: microbe, parasite or virus in culture.
The subject of another assay is Mus musculus. The assay is described as follows: Antidiabetic activity against albino mouse assessed as reduction in blood glucose level at 0.2 mmol/Kg relative to control. The format is functional. Also on record: scale not given: the % may be the effect or the level left.
Assay [9] in a line: Antioxidant activity assessed as DPPH radical scavenging activity. The format is functional. On the technique in general: DPPH is a stable violet radical that fades when it is reduced.

Chain of Carbonic anhydrase 1 (P00915 whole entry): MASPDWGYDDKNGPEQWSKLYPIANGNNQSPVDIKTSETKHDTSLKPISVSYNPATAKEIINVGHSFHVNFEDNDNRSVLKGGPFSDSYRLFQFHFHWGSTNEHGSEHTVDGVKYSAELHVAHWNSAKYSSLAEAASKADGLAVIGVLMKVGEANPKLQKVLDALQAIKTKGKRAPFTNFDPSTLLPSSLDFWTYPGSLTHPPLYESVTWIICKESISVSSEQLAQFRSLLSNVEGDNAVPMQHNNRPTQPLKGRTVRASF

As to `CN1N=C2C(C[C@H]3[C@@H]4CCc5cc(O)ccc5[C@H]4CC[C@]23C)C1c1cccs1` (some centres not stated), in the assay on MCF7, the IC50 (commonly the midpoint of a concentration-inhibition curve) came out at 0.043 µM.

Turning to `NS(=O)(=O)c1ccc(N2N=C(c3ccc(O)cc3)CC2c2ccc(F)cc2)cc1` (configuration not stated), the half-maximal cytotoxic concentration (CC50) (in the assay with Ca9-22; with HSC-2; with HSC-3; in assay [1]; in [2]; in assay [3]) was 39.3 µM in each case. Moreover, the figures for the Ki on Carbonic anhydrase 9 [4] and at Carbonic anhydrase 12 were 0.0535 µM and 0.0062 µM, respectively.

In the case of `COc1ccc(C2CC(c3cccc(Nc4ccnc5cc(Cl)ccc45)c3)=NN2c2ccccc2)cc1` (configuration not stated), the MIC50 in the assay with Candida albicans [5] and in the assay with Cryptococcus neoformans was 3.9 µg/mL each time. Besides, the GI50 – broadly, the concentration that inhibits growth by half – in assay [6] is less than 1 µM.

For the compound `COc1cc(C)c(/C=C/C(=O)c2cc(OC)c(OC)c(OC)c2)cc1C(C)C`, the IC50 with Plasmodium falciparum is less than 2 µM.

As to `COc1ccc(C2=NN(C(=O)c3ccc(S(N)(=O)=O)cc3)C(c3ccc(OC)cc3)C2)cc1` (configuration not stated), the results for the Ki on Carbonic anhydrase 1, on Carbonic anhydrase 9 [7] and on Carbonic anhydrase 2 were 0.0878 µM, 0.0055 µM and 0.0317 µM, respectively.

As to `COc1ccc(C2CC(c3ccc(Br)cc3)=NN2c2ccc(S(N)(=O)=O)cc2)c(OC)c1` (configuration not stated), the inhibitory constant (Ki) (usually a dissociation constant, usually derived from enzyme kinetics or from competition with a known ligand) at Acetylcholinesterase worked out at 0.0377 µM.

As to `O=C(c1ccncc1)N1N=C(c2cccc([N+](=O)[O-])c2)CC1c1cc2ccccc2nc1Cl` (configuration not stated), the MIC in the assay with Aspergillus clavatus, in the assay with Candida albicans [8] and in the assay with Aspergillus niger was 12.5 µg/mL (≈ 27.3 µM) throughout.

As for `NS(=O)(=O)c1ccc(N2N=C(c3ccc(O)cc3)CC2c2ccc([N+](=O)[O-])cc2)cc1` (configuration not stated), the CC50 (with HSC-2; with HSC-3; in [1]; in assay [2]; in assay [3]) was 39.3 µM throughout. For the same compound, the Ki at Carbonic anhydrase 9 [4] came out at 0.0535 µM; at Carbonic anhydrase 12, 0.0062 µM.

For `NS(=O)(=O)c1ccc(N2N=C(c3ccc(O)cc3)CC2c2ccc(Cl)cc2)cc1` (configuration not stated), the CC50 (with Ca9-22; in the assay with HSC-2; with HSC-3; in [1]; in assay [2]; in assay [3]) was 39.3 µM throughout. In addition, the results for the inhibition constant (Ki) on Carbonic anhydrase 9 [4] and at Carbonic anhydrase 12 were 0.0535 µM and 0.0062 µM, respectively.

Regarding `COc1ccc(C2CC(c3ccc(F)cc3)=NN2c2ccc(S(N)(=O)=O)cc2)cc1OC` (configuration not stated), at Acetylcholinesterase, the affinity, expressed as Ki, was 0.0377 µM.

The compound `COC(=O)C1N=NN(CC(=O)N2N=C(c3nnn(Cc4ccccc4)c3C)CC2c2ccc(OC)cc2)C1C(=O)OC` (configuration not stated) returned an MIC in the assay on Staphylococcus aureus of 3.9 µg/mL (≈ 6.79 µM).

`COc1ccc(C2CC(c3ccc(O)cc3)=NN2c2ccc(S(N)(=O)=O)cc2)cc1` (configuration not stated): the 50% cytotoxic concentration (CC50) (in the assay with Ca9-22; with HSC-2; with HSC-3; in assay [1]; in assay [2]; in [3]) was 39.3 µM each time. The inhibitory constant (Ki) at Carbonic anhydrase 9 [4] was 0.0535 µM; on Carbonic anhydrase 12, 0.0062 µM.

Turning to `COc1cc(C2CC(c3ccc(Nc4ccnc5cc(Cl)ccc45)cc3)=NN2c2ccc(Cl)cc2)cc(OC)c1OC` (configuration not stated), the MIC50 with Candida albicans [5] and in the assay on Cryptococcus neoformans was 3.9 µg/mL in each case. The same compound returned a concentration for 50% growth inhibition (GI50) in assay [6] of less than 1 µM.

The compound `CN1N=C2C(C[C@H]3[C@@H]4CCc5cc(O)ccc5[C@H]4CC[C@]23C)C1c1ccc(Br)cc1` (some centres not stated) registered an IC50 with MCF7 of 0.043 µM.

For `O=C(Nc1ccc(Cl)cc1)NS(=O)(=O)c1ccc(N2N=C(c3ccc(Br)cc3)CC2c2ccc(F)cc2)cc1` (configuration not stated), the Activity in the assay on Mus musculus was 16%.

As to `COc1ccc2c(c1)cc(C1CC(c3cc(Br)ccc3O)=NO1)c1nnnn12` (configuration not stated), the IC50 in assay [9] was determined as 26.5 µg/mL (≈ 60.2 µM).

On to `C[C@]12CC[C@@H]3c4ccc(O)cc4CC[C@H]3[C@@H]1CC1C2=NN(c2ccccc2)C1c1ccc(Br)cc1` (some centres not stated), for which the IC50 in the assay on MCF7 was found to be 0.043 µM.

For `O=C(Nc1ccccc1)NS(=O)(=O)c1ccc(N2N=C(c3ccc(Br)cc3)CC2c2ccc(F)cc2)cc1` (configuration not stated), the Activity in the assay with Mus musculus was 16%.

Consider `NS(=O)(=O)c1ccc(N2N=C(c3ccc(O)cc3)CC2c2ccc(Cl)cc2Cl)cc1` (configuration not stated), for which the CC50 (in the assay on Ca9-22; with HSC-2; with HSC-3; in assay [1]; in [2]; in assay [3]) was 39.3 µM each time. Moreover, the figures for the Ki at Carbonic anhydrase 9 [4] and on Carbonic anhydrase 12 were 0.0535 µM and 0.0062 µM, respectively.

Consider `COc1ccc(C2CC(c3cccc(Nc4ccnc5cc(Cl)ccc45)c3)=NN2c2ccc(Cl)cc2)cc1` (configuration not stated), for which the MIC50 (as a rule, the lowest concentration that inhibits either 50% of growth or 50% of the strains tested, depending on the study) in the assay on Candida albicans [5] was 3.9 µg/mL; in the assay with Cryptococcus neoformans, less than 3.9 µg/mL. For the same compound, in the assay with Cryptococcus neoformans (read-out: MIC100), the MIC is less than 3.9 µg/mL. Besides, the GI50 in assay [6] is less than 1 µM.

For `CCOC(=O)C1N=NN(CC(=O)N2N=C(c3nnn(Cc4ccccc4)c3C)CC2c2cccs2)C1C(=O)OCC` (configuration not stated), the MIC in the assay on Staphylococcus aureus is 3.9 µg/mL (≈ 6.74 µM).

`Cc1ccc(C2=NN(c3ccc(S(=O)(=O)NC(=O)NC4CCCCC4)cc3)C(c3ccc(F)cc3)C2)cc1` (configuration not stated): the Activity with Mus musculus was 16%.
